# From patent publication US20220117879A1, “PHOTO-PROTECTIVE PLANT-DERIVED COMPOSITION” (Ariel Scientific Innovations Ltd., priority 2019, published 2022)
# What was measured:
# [1] = SPF (sun protection factor) calculated from UV absorption spectra with the Mansur equation; assay type: physicochemical; details: 0.01 mg/ml
# Procedure: Absorption spectra were used to calculate SPF (sun protection factor) values using the Mansur equation, according to procedures described by Dutra et al. [Braz J Pharma Sci 2004, 40:381-385], using OptLabTM X software ([…] order to investigate UVB blocking properties of various plants, a large-scale screening of traditionally-used herbs which grow in the Judean Desert was performed. The leaves, twigs, branches, fruits, and roots of each tested plant were collected, dried, ground and extracted separately in ethanol, water, chloroform or propylene glycol methyl ether acetate (PMA) using a Soxhlet system.
# [2] = Photostability of SH-401 films on PMMA slides exposed to UV radiation, SPF versus time; assay type: physicochemical; details: film on PMMA slide, 12 hours of exposure to UV radiation (FIG. 7)
# Procedure: In order to evaluate photostability, uniform films of pure SH-401 were prepared on PMMA (polymethyl methacrylate) slides by depositing 2 ml of […] solution on the slides and evaporating the solvent. The samples were then exposed to UV radiation for various time intervals, ranging up to 25 hours. The glass plates were then immersed in a mixture of ethanol/water (2:98% v/v) and the films were dissolved ultrasonically. The UV samples were then quantified by UV-visible absorption spectroscopy and the SPF value was determined according to procedures described hereinabove and plotted as a function of time.
# human skin explants [3] = assay: Epidermal cell viability in human skin explants, MTT assay; assay type: cell-based; details: topical application, entire concentration range tested (up to maximal solubility) (FIG. 8A)
# Excerpt: (§1) Skins were obtained with permission from 30-60 year-old healthy women undergoing aesthetic abdomen surgery, after signing an informed consent. A mechanical skin press was used to section the skin to 0.8×0.8 cm^2 pieces, according to procedures described in Portugal-Cohen et al. [Exp Dermatol 2011, 20:749-755]. The skin explants were maintained in an air/liquid interface, dermal side submerged in the medium, according to procedures described in Portugal-Cohen et al. [Exp Dermatol 2011, 20:749-755] and Cohen et al. [Dead Sea and Arava Studies 2015, 7:66-74]. The human skin explants were laid in 6-well culture plates containing DMEM (Dulbecco's modified Eagle medium) supplemented with 100 units/ml penicillin and 100 μg/ml streptomycin), dermal side down in the medium and epidermis up. All samples were used after an overnight recovery.
# In order to investigate the safety and efficacy of the active compound SH-401 (isolated as described in Example 2), several experiments were performed on human skin explants, according to procedures described in the Materials and Methods section hereinabove.
# human skin explants [4] = assay: UVB-induced apoptosis in epidermis of human skin explants, caspase-3 activation assay; assay type: cell-based; details: 24 hours after UVB 350 mJ/cm^2; 0.02-2 μg/cm^2; comparable to Ultrasol SPF 30 formulation (FIG. 8B)
# Excerpt: as §1
# TNFα = assay: UVB-induced TNFα hypersecretion in human skin explants, ELISA; assay type: cell-based; details: 24 hours after UVB 350 mJ/cm^2; 0.02-2 μg/cm^2; comparable to Ultrasol SPF 30 formulation (FIG. 8C)
# Excerpt: as §1
# human skin explants [5] = assay: UVB-induced ROS generation in skin explants, DCFDA assay; assay type: cell-based; details: 0.02-2 μg/cm^2, with UVB (FIG. 9)
# Excerpt: as §1
# (§2) A common feature of UVB-induced damage is the generation of ROS (reactive oxygen species), which increases DNA damage, amplifies the generation of lipid peroxidation and hampers proteins and membranes within the cells [Schuch et al., Free Rad Biol Med 2017, 107:110-124]. […] ROS generation upon UVB radiation was evaluated in skin explants both by DCFDA (dichlorofluorescin diacetate) assay, as well as by measuring lipid peroxidation (by ELISA), which is associated with ROS generation.
# human skin explants [6] = assay: UVB-induced lipid peroxidation (MDA) in skin explants, ELISA; assay type: cell-based; details: 0.02-2 μg/cm^2, with UVB (FIG. 10)
# Excerpt: as §1, §2
# [7] = Antioxidant capacity by DPPH colour shift, Trolox equivalents; details: 1 weight percent solution (FIG. 11)
# Excerpt: Antioxidant capacity was further evaluated using the DPPH (diphenylpicrylhydrazyl) method. The color shift of DPPH in the presence of SH-401 and converted to units of Trolox (6-hydroxy-2,5,7,8-tetramethylchroman-2-carboxylic acid) equivalent antioxidant capacity based on a calibration curve.
# human skin explants [8] = assay: DNA fragmentation in epidermis cells of skin explants, COMET assay; assay type: cell-based; details: UVB 350 mJ/cm^2, 2 μg/cm^2 (FIG. 12)
# Excerpt: as §1
# human skin explants [9] = assay: Cyclobutane pyrimidine dimers (CPD) in epidermis cells from skin explants, ELISA; assay type: cell-based; details: UVB 350 mJ/cm^2, 0.01-2 μg/cm^2 (FIG. 13)
# Excerpt: as §1
# human skin explants [10] = assay: Histological examination of UVB-irradiated skin explants; assay type: cell-based; details: UVB 350 mJ/cm^2 (FIGS. 14A-14D)
# Excerpt: as §1
# pro-collagen = assay: Pro-collagen level in UVB-irradiated skin explants, ELISA; assay type: cell-based, human; details: following UVB radiation (FIG. 15A)
# Excerpt: as §1
# [11] = system: matrix metalloproteinase-1 (MMP1); assay: MMP1 in UVB-irradiated skin explants, ELISA; assay type: cell-based, human; details: following UVB radiation (FIG. 15B)
# Excerpt: as §1
# HaCaT cells = assay: Wound closure in confluent HaCaT cell in vitro model; assay type: cell-based; details: confluent HaCaT cells with induced wound, 24 hours (FIG. 16)
# Procedure: The effect of SH-401 on wound healing in skin was assessed using a confluent HaCaT cell in vitro model of wound closure.
substance,measurement,setting,value
"1,2,3,4,6-pentagalloyl-β-D-glucose [SH-401]",increase of SPF value relative to the crude extract,[1],more than 10 fold
same,stability towards UV radiation (change in SPF value),[2],essentially no change in SPF value
same,skin viability (MTT),human skin explants [3],did not compromise skin viability
same,UVB-induced apoptosis in the epidermis (caspase-3 activation),human skin explants [4],attenuated
same,UVB-induced TNFα hypersecretion,TNFα,attenuated
same,UVB-induced ROS generation (DCFDA),human skin explants [5],attenuated
same,UVB-induced lipid peroxidation (MDA),human skin explants [6],attenuated
same,Trolox equivalent antioxidant capacity (DPPH),[7],"approximately 2,310 micromole Trolox equivalent (TE) units per 100 grams"
same,UVB-induced DNA damage (COMET),human skin explants [8],attenuated
same,UVB-induced formation of cyclobutane pyrimidine dimers (CPD),human skin explants [9],reduced
same,UVB-induced pyknotic sunburn cells and reduction of the epidermal layer (histology),human skin explants [10],reversed this deleterious effect of the radiation
same,collagen synthesis (pro-collagen),pro-collagen,enhanced
same,MMP1 activity,[11],reduced
same,wound closure,HaCaT cells,enhanced wound closure
